From US20260234136A1, “ISOXAZOLIDINES AS RIPK1 INHIBITORS AND USE THEREOF” (GENZYME CORPORATION, priority 2023, published 2026)
Values after ≈ are worked out from the molar mass of the structure shown.

Columns and labels:
physchem = settings: 50 mM phosphate buffer, 25 °C, pH 7.4, aqueous buffer, thermodynamic from solid
U937 cells = test: Cellular assay in U937 cells to measure the activity of RIPK1-inhibitors on cell death (necroptosis); type: cell-based; settings: Homo sapiens, U-937, 50 μM zVAD.fmk and 100 ng/ml recombinant human TNFα, overnight (18 to 24 hrs), MTS readout
Experimental: Absorbance of formazan was read at 490 nm. The inhibitory activity of the test compound was quantified in a concentration response curve (CRC) experiment.
Compounds were obtained as 10 mM stock solutions and were diluted 1 to 10 volumes with DMSO to yield a 1 mM solution. From this solution 2 μl were diluted with 998 μl growth medium.
U937 cells were cultured in RPMI1640 Glutamax and 10% heat inactivated FBS. […] 50 μl of compound dilutions, as described in Cellular assay in U937 cells, were added and the cell suspension incubated overnight (18 to 24 hrs) at 37° C., 5% CO2 in a humidified atmosphere (95% rH).
CellTiter 96 Aqueous reagent was mixed (100 μl PMS (phenazine methosulfate) solution/2 ml MTS (3-(4,5-[…])-5-(3-carboxymethoxyphenyl)-2-(4-sulfophenyl)-2H-tetrazolium, inner salt) solution) and 20 μl were added per well. After 4 hrs incubation at 37° C. (5% CO2 95% rH) optical density was measured at 490 nm on a microplate reader (Tecan Infinite M1000).
The % inhibition is expressed as percentage of the maximal inhibition value obtained in the absence of TNFα/zVAD.fmc.

SMILES | solubility at 16 h (physchem) [µM] | IC50 (U937 cells) [nM]
O=C1CCCN1c1ccnc(N2CC[C@@H](C(=O)N3OCC[C@H]3c3cnccn3)C3(CC3)C2)n1 [Example 100, 1-[2-[(8R)-8-[(3S)-3-pyrazin-2-yl-1,2-oxazolidine-2-carbonyl]-5-azaspiro[2.5]octan-5-yl]pyrimidin-4-yl]pyrrolidin-2-one] | 269 (≈ 121 µg/mL) | 12
Cc1cnn(-c2ccnc(N3CCC(C(=O)N4OCC[C@H]4c4ccc(C)nc4)CC3)n2)c1 [Example 9, [1-[4-(4-methylpyrazol-1-yl)pyrimidin-2-yl]-4-piperidyl]-[(3S)-3-(6-methyl-3-pyridyl)isoxazolidin-2-yl]methanone] | 173 (≈ 74.9 µg/mL) | 29
Cc1nccn1-c1cc(N2CCC(C(=O)N3OCC[C@H]3c3cnccn3)CC2)ncn1 [Example 31, (S)-(1-(6-(2-methyl-1H-imidazol-1-yl)pyrimidin-4-yl)piperidin-4-yl)(3-(pyrazin-2-yl)isoxazolidin-2-yl)methanone] | > 1190 | 32
Cc1ncc([C@@H]2CCON2C(=O)C2CCN(c3nccc(-c4cc(N)nn4C)n3)CC2)cc1F [Example 102, [1-[4-(5-amino-2-methylpyrazol-3-yl)pyrimidin-2-yl]piperidin-4-yl]-[(3S)-3-(5-fluoro-6-methylpyridin-3-yl)-1,2-oxazolidin-2-yl]methanone] | > 1070 | 1
Cc1ncc([C@@H]2CCON2C(=O)C2CCN(c3nccc(N4CCOC4=O)n3)CC2)cc1F [Example 65, 3-[2-[4-[(3S)-3-(5-fluoro-6-methylpyridin-3-yl)-1,2-oxazolidine-2-carbonyl]piperidin-1-yl]pyrimidin-4-yl]-1,3-oxazolidin-2-one] | 209 (≈ 95.5 µg/mL) | 6
O=C(C1CCN(c2nccc(-c3ncco3)n2)CC1)N1OCC[C@H]1c1cnccn1 [Example 11, [1-(4-oxazol-2-ylpyrimidin-2-yl)-4-piperidyl]-[(3S)-3-pyrazin-2-ylisoxazolidin-2-yl]methanone] | > 2780 | 10
O=C(C1CCN(c2nccc(N3CCC(F)(F)C3=O)n2)CC1)N1OCC[C@H]1c1cncc(F)c1 [Example 75, 3,3-difluoro-1-[2-[4-[(3S)-3-(5-fluoropyridin-3-yl)-1,2-oxazolidine-2-carbonyl]piperidin-1-yl]pyrimidin-4-yl]pyrrolidin-2-one] | 98.4 (≈ 46.9 µg/mL) | 58
Cc1nc([C@@H]2CCON2C(=O)C2CCN(c3nccc(N4CCC(F)(F)C4=O)n3)CC2)cs1 [Example 59, 3,3-difluoro-1-[2-[4-[(3S)-3-(2-methyl-1,3-thiazol-4-yl)-1,2-oxazolidine-2-carbonyl]piperidin-1-yl]pyrimidin-4-yl]pyrrolidin-2-one] | 217 (≈ 104 µg/mL) | 80
CO[C@@H]1CCCN(c2ccnc(N3CCC(C(=O)N4OCC[C@H]4c4cncc(F)c4)CC3)n2)C1=O [Example 96, (3R)-1-[2-[4-[(3S)-3-(5-fluoropyridin-3-yl)-1,2-oxazolidine-2-carbonyl]piperidin-1-yl]pyrimidin-4-yl]-3-methoxypiperidin-2-one] | > 1030 | 149
Cc1ccc([C@@H]2CCON2C(=O)C2CCN(c3cc(N4CCCC4=O)ncn3)CC2)cn1 [Example 82, 1-[6-[4-[(3S)-3-(6-methylpyridin-3-yl)-1,2-oxazolidine-2-carbonyl]piperidin-1-yl]pyrimidin-4-yl]pyrrolidin-2-one] | > 1150 | 10000
O=C1CCCN1c1nccc(N2CCC(C(=O)N3OCC[C@H]3c3cncc(F)c3)CC2)n1 [Example 71, 1-[4-[4-[(3S)-3-(5-fluoropyridin-3-yl)-1,2-oxazolidine-2-carbonyl]piperidin-1-yl]pyrimidin-2-yl]pyrrolidin-2-one] | > 1140 | 2340
Cc1ccc([C@@H]2CCON2C(=O)[C@@H]2CCN(c3cc(-n4ccnc4C)ncn3)CC23CC3)cn1 (single isomer, unassigned) [Example 78] | > 1090 | 32
O=C1CCCN1c1nc(N2CCC(C(=O)N3OCC[C@H]3c3cnccn3)CC2)ncc1F [Example 6, 1-[5-fluoro-2-[4-[(3S)-3-pyrazin-2-ylisoxazolidine-2-carbonyl]-1-piperidyl]pyrimidin-4-yl]pyrrolidin-2-one] | > 1130 | 8
O=C(C1CCN(c2nc(-c3cncnc3)ncc2F)CC1)N1OCC[C@H]1c1cnccn1 [Example 25, [1-(5-fluoro-2-pyrimidin-5-yl-pyrimidin-4-yl)-4-piperidyl]-[(3S)-3-pyrazin-2-ylisoxazolidin-2-yl]methanone] | 69.2 (≈ 30.2 µg/mL) | 15
Cc1cncc([C@@H]2CCON2C(=O)C2CCN(c3nccc(N4CCCC4=O)n3)CC2)c1 [Example 50, 1-[2-[4-[(3S)-3-(5-methylpyridin-3-yl)-1,2-oxazolidine-2-carbonyl]piperidin-1-yl]pyrimidin-4-yl]pyrrolidin-2-one] | > 1150 | 33
O=C1OCCN1c1ccnc(N2CCC(C(=O)N3OCC[C@H]3c3cncc(F)c3)CC2)n1 [Example 91, 3-[2-[4-[(3S)-3-(5-fluoropyridin-3-yl)-1,2-oxazolidine-2-carbonyl]piperidin-1-yl]pyrimidin-4-yl]-1,3-oxazolidin-2-one] | > 1130 | 7
Cc1nccn1-c1nccc(N2CCC(C(=O)N3OCC[C@H]3c3cnccn3)CC2)n1 [Example 29, (S)-(1-(2-(2-methyl-1H-imidazol-1-yl)pyrimidin-4-yl)piperidin-4-yl)(3-(pyrazin-2-yl)isoxazolidin-2-yl)methanone] | > 1190 | 6
CO[C@H]1CCCN(c2ccnc(N3CCC(C(=O)N4OCC[C@H]4c4cncc(F)c4)CC3)n2)C1=O [Example 97, (3S)-1-[2-[4-[(3S)-3-(5-fluoropyridin-3-yl)-1,2-oxazolidine-2-carbonyl]piperidin-1-yl]pyrimidin-4-yl]-3-methoxypiperidin-2-one] | > 1030 | 86
Cc1ncc([C@@H]2CCON2C(=O)C2CCN(c3ncnc(-c4ccnn4C)n3)CC2)cc1F [Example 45, [(3S)-3-(5-fluoro-6-methylpyridin-3-yl)-1,2-oxazolidin-2-yl]-[1-[4-(2-methylpyrazol-3-yl)-1,3,5-triazin-2-yl]piperidin-4-yl]methanone] | 904 (≈ 409 µg/mL) | 1
Cn1nccc1-c1nccc(N2CCC(C(=O)N3OCC[C@H]3c3cnccn3)CC2)n1 [Example 24, [1-[2-(2-methylpyrazol-3-yl)pyrimidin-4-yl]-4-piperidyl]-[(3S)-3-pyrazin-2-ylisoxazolidin-2-yl]methanone] | > 1190 | 9
Cc1nc([C@@H]2CCON2C(=O)C2CCN(c3nccc(N4CCCC4=O)n3)CC2)co1 [Example 95, 1-[2-[4-[(3S)-3-(2-methyl-1,3-oxazol-4-yl)-1,2-oxazolidine-2-carbonyl]piperidin-1-yl]pyrimidin-4-yl]pyrrolidin-2-one] | > 1170 | 26
Cc1ncc([C@@H]2CCON2C(=O)C2CCN(c3cc(-n4ccnc4C)ncn3)CC2)cc1F [Example 21, [(3S)-3-(5-fluoro-6-methyl-3-pyridyl)isoxazolidin-2-yl]-[1-[6-(2-methylimidazol-1-yl)pyrimidin-4-yl]-4-piperidyl]methanone] | > 1110 | 73
Cc1cnn(-c2nccc(N3CCC(C(=O)N4OCC[C@H]4c4ccc(C)nc4)CC3)n2)c1 [Example 16, [1-[2-(4-methylpyrazol-1-yl)pyrimidin-4-yl]-4-piperidyl]-[(3S)-3-(6-methyl-3-pyridyl)isoxazolidin-2-yl]methanone] | 169 (≈ 73.2 µg/mL) | 53
Cc1ncc([C@@H]2CCON2C(=O)[C@@H]2CCN(c3cc(-c4ncnn4C)ncn3)CC23CC3)cc1F [Example 43, [(3S)-3-(5-fluoro-6-methylpyridin-3-yl)-1,2-oxazolidin-2-yl]-[(8R)-5-[6-(2-methyl-1,2,4-triazol-3-yl)pyrimidin-4-yl]-5-azaspiro[2.5]octan-8-yl]methanone] | > 1040 | 57
Cc1ccc([C@@H]2CCON2C(=O)C2CCN(c3ccnc(N4CCC(C)(C)C4=O)n3)CC2)cn1 [Example 84, 3,3-dimethyl-1-[4-[4-[(3S)-3-(6-methylpyridin-3-yl)-1,2-oxazolidine-2-carbonyl]piperidin-1-yl]pyrimidin-2-yl]pyrrolidin-2-one] | > 1080 | 8130
Cc1nc([C@@H]2CCON2C(=O)C2CCN(c3nccc(N4CCC5(CC5)C4=O)n3)CC2)cs1 [Example 52, 5-[2-[4-[(3S)-3-(2-methyl-1,3-thiazol-4-yl)-1,2-oxazolidine-2-carbonyl]piperidin-1-yl]pyrimidin-4-yl]-5-azaspiro[2.4]heptan-4-one] | 321 (≈ 151 µg/mL) | 24
O=C1OCCN1c1ccnc(N2CCC(C(=O)N3OCC[C@H]3c3cnccn3)CC2)n1 [Example 2, (S)-3-(2-(4-(3-(pyrazin-2-yl)isoxazolidine-2-carbonyl)piperidin-1-yl)pyrimidin-4-yl)oxazolidin-2-one] | > 1180 | 50
